Data set [1] relates to Trypanosoma cruzi. Kind of data set: Antitrypanosomal activity against Trypanosoma cruzi MHOM/Pe/2011/Arequipa DTU 5 trypomastigotes infected in Balb/c mouse assessed as parasite-free spleen at 20 mg/kg, po pretreated once daily for 5 consecutive days starting from day 75 post infection followed by cyclophosphamide-induced immunosuppression on day 100 post infection measured on day 127 post infection by PCR method. Type of data set: functional.

Data set [2] deals with Trypanosoma cruzi. In words: Antitrypanosomal activity against Trypanosoma cruzi MHOM/Pe/2011/Arequipa DTU 5 trypomastigotes infected in Balb/c mouse assessed as parasite-free lungs at 20 mg/kg, po pretreated once daily for 5 consecutive days starting from day 10 post infection followed by cyclophosphamide-induced immunosuppression on day 100 post infection measured on day 127 post infection by PCR method. Type of data set: functional.

Data set [3] can be described thus: Hepatotoxicity in Balb/c mouse infected with Trypanosoma cruzi MHOM/Pe/2011/Arequipa DTU 5 trypomastigotes assessed as change in ratio of serum ALT to GPT level at 20 mg/kg, po once daily for 5 consecutive days starting from day 10 post infection measured on day 127 post infection by biochemical analysis (reference value: 49 U/L). The class given is toxicity, organism-based. Conditions: in vivo.

The nature of data set [4]: Hepatotoxicity in Balb/c mouse infected with Trypanosoma cruzi MHOM/Pe/2011/Arequipa DTU 5 trypomastigotes assessed as increase in total bilirubin level at 20 mg/kg, po once daily for 5 consecutive days starting from day 75 post infection measured on day 81 post infection relative to control. Type of data set: toxicity, organism-based. Conditions: in vivo.
Data set [5] is described as follows: Nephrotoxicity in Balb/c mouse infected with Trypanosoma cruzi MHOM/Pe/2011/Arequipa DTU 5 trypomastigotes assessed as decrease in serum urea level at 20 mg/kg, po once daily for 5 consecutive days starting from day 10 post infection measured on day 16 post infection relative to control. Type of data set: toxicity, organism-based. Conditions: in vivo.
Data set [6] is described as follows: Nephrotoxicity in Balb/c mouse infected with Trypanosoma cruzi MHOM/Pe/2011/Arequipa DTU 5 trypomastigotes assessed as decrease in serum urea level at 20 mg/kg, po once daily for 5 consecutive days starting from day 75 post infection measured on day 127 post infection relative to control. Conditions: in vivo. The class given is toxicity, organism-based.
Data set [7] in a line: Toxicity in Balb/c mouse assessed as reduction in body mass at 20 mg/kg, po once daily for 5 consecutive days starting from day 10 post infection relative to control. The class given is organism-based. The arrangement: scale not given: the % may be the effect or the level left. Conditions: in vivo.
The test system of data set [8] is Trypanosoma cruzi. Kind of data set: Antitrypanosomal activity against Trypanosoma cruzi MHOM/Pe/2011/Arequipa DTU 5 epimastigotes assessed as reduction in DNA and RNA levels at IC25 after 72 hrs by acridine orange staining based flow cytometry relative to control. The class given is functional. (In general: Flow cytometry measures light scatter and fluorescence of single cells or particles in a stream.)

The subject of data set [9] is Trypanosoma cruzi. In words: Antitrypanosomal activity against Trypanosoma cruzi MHOM/Pe/2011/Arequipa DTU 5 trypomastigotes infected in Balb/c mouse assessed as parasite-free oesophagus at 20 mg/kg, po pretreated once daily for 5 consecutive days starting from day 10 post infection followed by cyclophosphamide-induced immunosuppression on day 100 post infection measured on day 127 post infection by PCR method. The class given is functional.

Data set [10] deals with Trypanosoma cruzi. Kind of data set: Antitrypanosomal activity against Trypanosoma cruzi MHOM/Pe/2011/Arequipa DTU 5 trypomastigotes infected in Balb/c mouse assessed as reduction in parasitaemia reactivation at 20 mg/kg, po pretreated once daily for 5 consecutive days starting from day 10 post infection followed by cyclophosphamide-induced immunosuppression on day 100 post infection measured within 1 week post immunosuppression by Neubauer chamber method. Type of data set: functional. The arrangement: scale not given: the % may be the effect or the level left.

The test system of data set [11] is Trypanosoma cruzi. In words: Antitrypanosomal activity against Trypanosoma cruzi MHOM/Pe/2011/Arequipa DTU 5 trypomastigotes infected in Balb/c mouse assessed as parasite-free heart at 20 mg/kg, po pretreated once daily for 5 consecutive days starting from day 75 post infection followed by cyclophosphamide-induced immunosuppression on day 100 post infection measured on day 127 post infection by PCR method. The class given is functional.

Data set [12] relates to Trypanosoma cruzi. Kind of data set: Antitrypanosomal activity against Trypanosoma cruzi MHOM/Pe/2011/Arequipa DTU 5 trypomastigotes infected in Balb/c mouse assessed as reduction in Ig-G level in serum at 20 mg/kg, po once daily for 5 consecutive days starting from day 75 post infection measured on day 81 post infection by ELISA. Type of data set: functional, organism-based. In general terms: An ELISA detects its analyte on a solid surface through an enzyme-linked reagent.

Data set [13] is described as follows: Hepatotoxicity in Balb/c mouse infected with Trypanosoma cruzi MHOM/Pe/2011/Arequipa DTU 5 trypomastigotes assessed as increase in ratio of serum ALT to GPT level at 20 mg/kg, po once daily for 5 consecutive days starting from day 75 post infection measured on day 81 post infection relative to control. The class given is toxicity, organism-based. Conditions: in vivo.

Data set [14] relates to Trypanosoma cruzi. Kind of data set: Antitrypanosomal activity against Trypanosoma cruzi MHOM/Pe/2011/Arequipa DTU 5 trypomastigotes infected in Balb/c mouse assessed as parasite-free brain at 20 mg/kg, po pretreated once daily for 5 consecutive days starting from day 10 post infection followed by cyclophosphamide-induced immunosuppression on day 100 post infection measured on day 127 post infection by PCR method. The class given is functional.

The test system of data set [15] is Trypanosoma cruzi. In words: Antitrypanosomal activity against Trypanosoma cruzi MHOM/Pe/2011/Arequipa DTU 5 trypomastigotes infected in Balb/c mouse assessed as parasite-free oesophagus at 20 mg/kg, po pretreated once daily for 5 consecutive days starting from day 75 post infection followed by cyclophosphamide-induced immunosuppression on day 100 post infection measured on day 127 post infection by PCR method. Type of data set: functional.

The nature of data set [16]: Nephrotoxicity in Balb/c mouse infected with Trypanosoma cruzi MHOM/Pe/2011/Arequipa DTU 5 trypomastigotes assessed as decrease in serum uric acid level at 20 mg/kg, po once daily for 5 consecutive days starting from day 10 post infection measured on day 16 post infection relative to control. The class given is toxicity, organism-based. The arrangement: scale not given: the % may be the effect or the level left. Conditions: in vivo.

For data set [17], the system named is Trypanosoma cruzi. Kind of data set: Antitrypanosomal activity against Trypanosoma cruzi MHOM/Pe/2011/Arequipa DTU 5 trypomastigotes infected in Balb/c mouse assessed as reduction in parasitaemia reactivation at 20 mg/kg, po pretreated once daily for 5 consecutive days starting from day 75 post infection followed by cyclophosphamide-induced immunosuppression on day 100 post infection measured within 1 week post immunosuppression by Neubauer chamber method. Further details: scale not given: the % may be the effect or the level left. The class given is functional.

Data set [18] deals with Trypanosoma cruzi. Kind of data set: Antitrypanosomal activity against Trypanosoma cruzi MHOM/Pe/2011/Arequipa DTU 5 trypomastigotes infected in Balb/c mouse assessed as parasite-free adipose tissue at 20 mg/kg, po pretreated once daily for 5 consecutive days starting from day 75 post infection followed by cyclophosphamide-induced immunosuppression on day 100 post infection measured on day 127 post infection by PCR method. Type of data set: functional.

Data set [19] concerns Trypanosoma cruzi. Kind of data set: Antitrypanosomal activity against Trypanosoma cruzi MHOM/Pe/2011/Arequipa DTU 5 trypomastigotes infected in Balb/c mouse assessed as reduction in Ig-G level in serum at 20 mg/kg, po pretreated once daily for 5 consecutive days starting from day 75 post infection followed by cyclophosphamide-induced immunosuppression on day 100 post infection measured on day 127 post infection by ELISA. The class given is functional, organism-based.

For data set [20], the system named is Trypanosoma cruzi. Kind of data set: Trypanocidal activity against Trypanosoma cruzi MHOM/Pe/2011/Arequipa DTU 5 amastigotes infected in African green monkey Vero cells assessed as reduction in number of amastigotes per infected cells at log -0.41 to 1.7 after 72 hrs by Giemsa-staining based assay. The class given is functional, organism-based.
Data set [21] has as its system Trypanosoma cruzi. Kind of data set: Antitrypanosomal activity against Trypanosoma cruzi MHOM/Pe/2011/Arequipa DTU 5 trypomastigotes infected in Balb/c mouse assessed as reduction in Ig-G level in serum at 20 mg/kg, po pretreated once daily for 5 consecutive days starting from day 10 post infection followed by cyclophosphamide-induced immunosuppression on day 100 post infection measured on day 127 post infection by ELISA. The class given is functional, organism-based.

Data set [22] can be described thus: Toxicity in Balb/c mouse assessed as death at 20 mg/kg, po once daily for 5 consecutive days starting from day 75 post infection. The settings on record: in vivo. Type of data set: organism-based.

Calls of active or inactive are those of the source. The calls are words filed in the database; no cut-off is given here. Some results are limits rather than exact numbers.

Turning to `CCCCCCCCCCCCCCCCNc1c(N(C)CCCN(C)C)c(=O)c1=O`, the Activity with Trypanosoma cruzi [1] is 78%; in the data set with Trypanosoma cruzi [2] it was 67%; in data set [3] it was 49 U/L; in [4], 20%; in data set [5] it was 10 to 20 mg/dL; in [6] it was 10 to 20 mg/dL. Moreover, the Activity in [7] is greater than 10%; in the data set with Trypanosoma cruzi [9], 67%; in the data set on Trypanosoma cruzi [10] it was 26%; in the data set on Trypanosoma cruzi [11], 78%; in [13] it was 20 to 30 U/L; in the data set with Trypanosoma cruzi [14] it was 67%. In addition, the Activity with Trypanosoma cruzi [15] is 78%; in data set [16], greater than 40%; with Trypanosoma cruzi [17], 21%; in the data set on Trypanosoma cruzi [18] it was 78%; in data set [22] it was “Non-Toxic”. In addition, in the data set with Trypanosoma cruzi [8], the “inhibition (INH)” value is recorded as 49.05%. Besides, the result in the data set on Trypanosoma cruzi [12] was inactive. The outcome in the data set on Trypanosoma cruzi [19], with Trypanosoma cruzi [20] and with Trypanosoma cruzi [21] was Active.
As to `O=C(Cn1ccnc1[N+](=O)[O-])NCc1ccccc1` [BENZNIDAZOLE], the Activity with Trypanosoma cruzi [1] is 55%; in the data set on Trypanosoma cruzi [2] it was 33%; in [3], 49 U/L; in data set [4], 30%; in [5] it was 20 to 30 mg/dL; in data set [6], 20 to 30 mg/dL. The Activity in data set [7] is greater than 10%; in the data set on Trypanosoma cruzi [9] it was 33%; with Trypanosoma cruzi [10] it was 75%; in the data set with Trypanosoma cruzi [11] it was 55%; in [13], 20 to 30 U/L; in the data set on Trypanosoma cruzi [14], 33%. Also, the Activity in the data set with Trypanosoma cruzi [15] was 55%; in data set [16] it was greater than 40%; in the data set with Trypanosoma cruzi [17] it was 51%; in the data set on Trypanosoma cruzi [18], 55%; in data set [22] it was “Non-Toxic”. Also, the “inhibition (INH)” value in the data set on Trypanosoma cruzi [8] is 22.38%. The result in the data set on Trypanosoma cruzi [12] was inactive. The result with Trypanosoma cruzi [19], with Trypanosoma cruzi [20] and in the data set with Trypanosoma cruzi [21] was Active.
`CCCCCCNc1c(N(C)CCCN(C)C)c(=O)c1=O`: the outcome in the data set on Trypanosoma cruzi [1], with Trypanosoma cruzi [2], in the data set on Trypanosoma cruzi [9], in the data set on Trypanosoma cruzi [10], in the data set with Trypanosoma cruzi [11] and with Trypanosoma cruzi [12] was inactive. For the same compound, the result in the data set with Trypanosoma cruzi [14], in the data set on Trypanosoma cruzi [15], with Trypanosoma cruzi [17], with Trypanosoma cruzi [18], with Trypanosoma cruzi [19] and in the data set with Trypanosoma cruzi [21] was inactive. Besides, the Activity in [3] is 49 U/L; in [4], 10%; in data set [5] it was 10 to 20 mg/dL; in [6] it was 10 to 20 mg/dL; in [7], greater than 10%; in data set [13] it was 20 to 30 U/L. Further, the Activity is greater than 40% in data set [16] and “Non-Toxic” in data set [22]. In addition, the “inhibition (INH)” value in the data set with Trypanosoma cruzi [8] turned out to be 31.13%. Also, in the data set with Trypanosoma cruzi [20], the result was Active.

For the origin of these results see ChEMBL document CHEMBL4411344, “Synthesis and biological evaluation of new long-chain squaramides as anti-chagasic agents in the BALB/c mouse model” (Bioorg Med Chem, 2019).
